According to patent US20150197492A1, “NOVEL INDENO[1,2-c]QUINOLIN-11-ONE DERIVATIVES, PREPARATION METHOD AND APPLICATION THEREOF” (National Defense Medical Center, priority 2014, published 2015):

Legend:
Assay type in all cases: cell-based
[1] = system: CCRF-CEM; assay: cells; details: CCRF-CEM (Leukemia), 10 μM, 48 hours
[2] = system: NCI-H522; assay: cells; details: NCI-H522 (Non-Small Cell Lung Cancer), 10 μM, 48 hours
[3] = system: SN12C; assay: cells; details: SN12C (Renal Cancer), 10 μM, 48 hours
[4] = system: UACC-257; assay: cells; details: UACC-257 (Melanoma), 10 μM, 48 hours
[5] = system: SK-MEL-5; assay: cells; details: SK-MEL-5 (Melanoma), 10 μM, 48 hours
[6] = system: OVCAR-8; assay: cells; details: OVCAR-8 (Ovarian Cancer), 10 μM, 48 hours
[7] = system: CAKI-1; assay: cells; details: CAKI-1 (Renal Cancer), 10 μM, 48 hours
[8] = system: 786-0; assay: cells; details: 786-0 (Renal Cancer), 10 μM, 48 hours
[9] = system: HOP-92; assay: cells; details: HOP-92 (Non-Small Cell Lung Cancer), 10 μM, 48 hours
[10] = system: DU-145; assay: cells; details: DU-145 (Prostate Cancer), 10 μM, 48 hours
[11] = system: SF-539; assay: cells; details: SF-539 (CNS Cancer), 10 μM, 48 hours
[12] = system: SNB-19; assay: cells; details: SNB-19 (CNS Cancer), 10 μM, 48 hours
[13] = system: MALME-3M; assay: cells; details: MALME-3M (Melanoma), 10 μM, 48 hours
[14] = system: KM12; assay: cells; details: KM12 (Colon Cancer), 10 μM, 48 hours
[15] = system: NCI/ADR-RES; assay: cells; details: NCI/ADR-RES (Ovarian Cancer), 10 μM, 48 hours
[16] = system: HCT-15; assay: cells; details: HCT-15 (Colon Cancer), 10 μM, 48 hours
[17] = system: 55 to 60 cancer cell lines; details: 10 μM, 48 hours; for Mean (mean growth percentage of the tested cancer cell lines): all tested cell lines
[18] = system: T-47D; assay: cells; details: T-47D (Breast Cancer), 10 μM, 48 hours
[19] = system: OVCAR-5; assay: cells; details: OVCAR-5 (Ovarian Cancer), 10 μM, 48 hours
[20] = system: SF-295; assay: cells; details: SF-295 (CNS Cancer), 10 μM, 48 hours
[21] = system: NCI-H226; assay: cells; details: NCI-H226 (Non-Small Cell Lung Cancer), 10 μM, 48 hours
[22] = system: SK-MEL-2; assay: cells; details: SK-MEL-2 (Melanoma), 10 μM, 48 hours
[23] = system: ACHN; assay: cells; details: ACHN (Renal Cancer), 10 μM, 48 hours
[24] = system: MCF7; assay: cells; details: MCF7 (Breast Cancer), 10 μM, 48 hours
[25] = system: M14; assay: cells; details: M14 (Melanoma), 10 μM, 48 hours
[26] = system: HOP-62; assay: cells; details: HOP-62 (Non-Small Cell Lung Cancer), 10 μM, 48 hours
[27] = system: UO-31; assay: cells; details: UO-31 (Renal Cancer), 10 μM, 48 hours
[28] = system: human PC-3 cells; assay: Sulforhodamine B (SRB) assay, cytotoxicity against PC-3 cells; details: Homo sapiens, PC-3, 48 h
Procedure, shortened: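 PC-3 cells in 5% FBS were fixed with 10% TCA after 24 h as T0, then treated with compound for 48 h, fixed, stained with 0.4% SRB in 1% acetic acid and solubilized in 10 mmol/L Trizma base. Absorbance was read at 515 nm. GI% = 100−[(Tx−T0)/(C−T0)]×100, and IC50 is the concentration halving total protein.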

[29] = system: RXF 393; assay: cells; details: RXF 393 (Renal Cancer), 10 μM, 48 hours

| Compound | growth percentage [1] | growth percentage [2] | growth percentage [3] | growth percentage [4] | growth percentage [5] | growth percentage [6] | growth percentage [7] | growth percentage [8] | growth percentage [9] | growth percentage [10] | growth percentage [11] | growth percentage [12] | growth percentage [13] | growth percentage [14] | growth percentage [15] | growth percentage [16] | Mean (mean growth percentage of the tested cancer cell lines) [17] | growth percentage [18] | growth percentage [19] | growth percentage [21] | further results |
| --- | --- | --- | --- | --- | --- | --- | --- | --- | --- | --- | --- | --- | --- | --- | --- | --- | --- | --- | --- | --- | --- |
| CN(C)c1nc2ccccc2c2c1-c1ccc(Cl)cc1C2=O [SJ-2, 9-Chloro-6-(dimethylamino)-11H-indeno[1,2-c]quinolin-11-one] | 92.13% | 88.97% | 95.38% | 101.11% | 94.89% | 84.55% | 84.65% | 108.01% | 44.26% | 106.50% | 87.80% | 104.19% | 111.50% | 94.44% | 92.57% | 80.49% | 87.15% | 44.88% | 89.14% | 84.79% | inhibition effect in different cancer cell lines (summary of the NCI data, in words) [17]: more effective in breast cancer cell line; growth percentage [20]: 93.22%; growth percentage [22]: 95.09%; growth percentage [23]: 87.55%; growth percentage [24]: 23.99%; growth percentage [25]: 113.63%; growth percentage [26]: 78.02%; growth percentage [27]: 48.63%; IC50 [28]: 4.34 µM; growth percentage [29]: 101.32% |
| COc1nc2ccccc2c2c1-c1ccc(Cl)cc1C2=O [SJ-27, 6-Methoxy-9-chloro-11H-indeno[1,2-c]quinolin-11-one] | 89.25% | 95.89% | 89.48% | 98.20% | 98.51% | 98.75% | 90.65% | 103.51% | 77.75% | 121.06% | 91.49% | 96.35% | 107.54% | 98.35% | 94.29% | 94.98% | 96.23% | 78.97% | 96.81% | 89.22% | growth percentage [22]: 109.44%; growth percentage [23]: 90.83%; growth percentage [24]: 71.98%; growth percentage [25]: 96.50%; growth percentage [26]: 96.01%; growth percentage [27]: 55.69%; growth percentage [29]: 114.49% |
